Measured values: patent publication US10125183B2, “Decoy peptides inhibiting binding of AMIGO2 and 3-phosphoinositide-dependent kinase 1” (Curacle Co., Ltd., priority 2015, dated 2018)

Legend:
PDK1 = PDK1 localization in HUVECs after VEGF treatment (immunofluorescence); format: cell-based, human; details: PTD-A2-treated HUVECs
Protocol: HUVECs were fixed in 3.7% formaldehyde for 10 min and permeabilized with 0.1% Triton X-100 on the ice. Cells were labeled with anti-FAK antibody (Santa Cruz Biotechnology), anti-PDK1 antibody (Cell Signaling Technology), anti-Akt antibody (Cell Signaling Technology), and anti-AMIGO2 antibody (Abcam) for 2 h at room temperature or overnight at 4° C. Afterwards, the cells were incubated with Alexa 488 and Alexa 546 secondary antibodies (Invitrogen) for 60 min at room temperature, and were then examined under a confocal microscope (LSM 700 META; Carl Zeiss).
(§1) The PTD-A2 of FITC-linker-YGRKKRRQRRR-GKRVVFLEPLKDTA (SEQ ID NO: 37) (decoy peptide) and the control peptide (FITC-linker-YGRKKRRQRRR-GRVKTDFLAVPEKL (SEQ ID NO: 38)) (Con-pep) were obtained from Peptron. The experiment was performed using 5 μM concentration in vitro, 4 mg/kg was used for an animal experiment. Peptide treated HUVECs were incubated with serum-free M199 medium at 37° C.

C57BL/6J mice = experiment: Mouse model of oxygen-induced retinopathy (OIR); format: in vivo; details: injected every day for five days from P12
Protocol: OIR was induced in C57BL/6J mice as previously described (Connor et al., 2009). Briefly, litters of postnatal day seven (P7) C57BL/6J pups were placed in a 75% oxygen atmosphere for five days and then returned to room air at age P12. After returning to room air, the pups were injected with PBS, Con-pep and PTD-A2 every day for five days. Following the injections, crumps of non-vascular regions, vascular regions and blood vessels were detected with CD31 staining.

HUVECs [1] = experiment: Matrigel-induced tube formation assay; format: cell-based, human; details: PTD-A2 treated ECs
Protocol: The tube formation was assayed as previously described (Choi et al., 2009). Briefly, 250 μL of Matrigel™ (BD Biosciences) was added to a 16-mm diameter tissue culture well on the ice. HUVEC cells then ware placed on that and tube formation was confirmed. The images of the tubes were quantified using ImageJ software (National Institutes of Health).

B16F10 melanoma tumors = experiment: B16F10 melanoma tumor model; format: in vivo, mouse; details: 4 mg/kg every other day
Protocol: B16F10 melanoma cells (2.5×10^5 cells in 100 μl) were subcutaneously injected into the dorsal flank of 6-7 week-old mice and then PTD-Con or PTD-A2 peptide (4 mg/kg every other day) was administered by intratumoral injection after the tumor volume exceeded 100 mm^3. The size was evaluated every day, tumor samples were frozen sectioned, and stained with anti-CD31 antibody to detect the tumor vascular changes, and then examined the apoptosis bio TUNEL staining. For the TUNEL assay, an in situ cell death detection kit (Roche) was used, and sections were analyzed using a confocal microscope (LSM 700 META; Carl Zeiss).

PDK1 PH domain = molecular target: T1, PDK1 PH domain (Homo sapiens, UniProt O15530); experiment: Decoy peptide binding assay (FITC-PTD-A2 with His-tagged PH domain proteins); details: FITC-PTD-A2, PH domain proteins 0-60 μg, fluorescence
T1 construct: the purified His-tagged PH domain proteins were incubated with Ni^2+-NTA resins; made in house; host or cells: Escherichia coli BL21
T1 sequence (O15530 459-550 limits assumed): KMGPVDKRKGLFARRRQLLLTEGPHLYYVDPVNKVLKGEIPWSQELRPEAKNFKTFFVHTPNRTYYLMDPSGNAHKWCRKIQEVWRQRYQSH
Protocol: (§2) For the peptide binding assay, the purified His-tagged PH domain proteins were incubated with Ni^2+-NTA resins for 1 h, incubated in vitro with the FITC-PTD-A2 or Con-pep for 1 h, washed five times, eluted with elution buffer. The FITC level of eluted material was then measured using FLUOstar Omega (BGMLABTECH). For the peptide competition assay, the purified His tagged PH domain proteins were incubated with Ni^2+-NTA resins for 1 h, incubated in vitro with the Cytoplasm Domain protein of AMIGO2 proteins with FITC-PTD-A2 or Con-pep for 1 h, washed five times, eluted with elution buffer, and the fluorescence was measured. The FITC level of eluted material was then measured using FLUOstar Omega.

[2] = molecular target: T2, association between AMIGO2 and PDK1 (Homo sapiens, UniProt O15530); experiment: Immunoprecipitation of AMIGO2 and blotting for PDK1 in peptide-treated HUVECs; format: cell-based
T2 construct: endogenous in cells; host or cells: endothelial cells (HUVECs)
T2 sequence (O15530 1-556): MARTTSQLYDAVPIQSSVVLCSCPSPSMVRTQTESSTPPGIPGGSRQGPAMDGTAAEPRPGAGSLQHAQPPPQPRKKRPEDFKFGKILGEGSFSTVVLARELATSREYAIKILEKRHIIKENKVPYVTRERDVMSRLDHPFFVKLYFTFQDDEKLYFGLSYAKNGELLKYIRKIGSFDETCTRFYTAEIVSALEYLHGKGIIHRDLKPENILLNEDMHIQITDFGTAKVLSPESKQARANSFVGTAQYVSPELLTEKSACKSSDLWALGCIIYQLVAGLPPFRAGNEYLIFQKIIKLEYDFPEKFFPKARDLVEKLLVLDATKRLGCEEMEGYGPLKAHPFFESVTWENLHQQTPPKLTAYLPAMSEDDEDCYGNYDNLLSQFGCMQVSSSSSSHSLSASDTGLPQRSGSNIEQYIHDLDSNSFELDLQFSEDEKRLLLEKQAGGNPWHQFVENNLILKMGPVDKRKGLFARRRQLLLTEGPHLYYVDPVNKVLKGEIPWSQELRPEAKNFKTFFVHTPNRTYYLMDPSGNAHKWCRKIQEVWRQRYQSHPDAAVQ
Protocol: For co-immunoprecipitation, HEK293T cells were lysed in 1 mL lysis buffer (20 mmol/L Tris/HCl pH 8.0, 2 mmol/L EDTA, 137 mmol/L NaCl, 1 mmol/L NaVO4, 1 mmol/L PMSF, 10% glycerol, and 1% Triton X-100), and were centrifuged at 14,000×g for 15 min at 4° C., and then the supernatants were immunoprecipitated with antibodies against FLAG (Sigma-Aldrich) and GFP (Santa Cruz Biotechnology) at 4° C. overnight. The immunoprecipitated proteins were obtained by using protein A-agarose beads (Upstate Biotechnology), and detected by SDS-PAGE.
as §1

[3] = molecular target: T3, interaction of the CD of AMIGO2 and PH domain of PDK1 (Homo sapiens, UniProt O15530); experiment: Peptide competition assay (GST-AMIGO2 CD versus peptide on His-tagged PDK1 PH); format: binding; details: His-tagged PDK1 PH with GST-AMIGO2 CD and peptide, dose dependent
T3 construct: the purified His tagged PH domain proteins were incubated with Ni^2+-NTA resins; made in house; host or cells: Escherichia coli BL21
T3 sequence (O15530 459-550 limits assumed): T1 sequence (O15530 459-550 limits assumed)
Protocol: as §2

HUVECs [4] = experiment: HUVEC cell viability with or without VEGF; format: cell-based, human; details: serum-free starvation with or without VEGF
Protocol: Endothelial progenitor cells (EPC) were isolated from human umbilical cord blood as previously described (Maeng et al., 2009). Briefly, human umbilical cord blood samples (approximately 50 mL each) were collected from fresh placentas with attached umbilical cords by gravity flow. Human umbilical vein endothelial cells (HUVECs) were isolated from human umbilical cord veins using collagenase as described previously (Marin et al., 2001), and cells from passages three to six were used. HUVECs were cultured on 2% gelatin-coated dishes at 37° C. in a 5% CO2-humidified atmosphere using M199 medium (HyClone) containing 20% fetal bovine serum (FBS), 100 U/mL penicillin, 100 μg/mL streptomycin, 3 ng/mL bFGF (Upstate Biotechnology), and 5 U/mL heparin.
as §1

C57BL/6 mice = experiment: Matrigel plug angiogenesis assay; format: in vivo, mouse; details: 25 μM peptide with VEGF 200 ng, subcutaneous, five days
Protocol: Angiogenesis was evaluated as previously described (Choi et al., 2009). PBS; Matrigel™ (500 μL; BD Biosciences) mixed with PTD-A2 (25 μM), VEGF (200 ng) and heparin (10 U); and Con-pep (25 μM), VEGF (200 ng) and heparin (10 u) were each subcutaneously injected to Five- to six-week-old C57BL/6 mice. Following injection, the Matrigel™ rapidly formed a single, solid gel plug. After five days, the skin of the mouse was pulled back to expose the Matrigel™ plug, which remained intact. To quantify blood vessel formation, hemoglobin was measured using the Drabkin method and the Drabkin reagent kit 525 (Sigma-Aldrich), and immunohistochemistry was performed using anti-CD31 antibody (BD Biosciences) to identify infiltrating ECs.

Akt and PDK1 = experiment: VEGF-induced Akt signaling in HUVECs; format: cell-based, human; details: PTD-A2-treated HUVECs
Protocol: as §1

Substance: FITC-linker-YGRKKRRQRRR-GKRVVFLEPLKDTA (SEQ ID NO: 37) [PTD-A2]
- PDK1 localization to the plasma membrane following VEGF treatment (PDK1): unable to move to the plasma membrane
- avascular areas of retinas (C57BL/6J mice): increased
- retinal hemorrhage (C57BL/6J mice): significantly reduced
- retinal vascular areas (C57BL/6J mice): significantly reduced
- tuft formation (C57BL/6J mice): significantly reduced
- Matrigel-induced tube formation (HUVECs [1]): inhibited
- apoptotic regions of tumors (TUNEL assay) (B16F10 melanoma tumors; compared to PBS or Con-pep groups): increased
- tumor formation (B16F10 melanoma tumors; intratumoral injection): decreased
- tumor angiogenesis (B16F10 melanoma tumors; intratumoral, CD31 staining): decreased
- binding to the PDK1 PH domain (PDK1 PH domain): bound
- association between AMIGO2 and PDK1 in endothelial cells [2]: inhibited
- interaction of the CD of AMIGO2 and PH domain of PDK1 [3]: inhibited
- cell viability of PTD-A2-treated HUVECs (HUVECs [4]): dose and time-dependent inhibitory effect
- hemoglobin contents of Matrigel plugs (C57BL/6 mice): lower
- neovascularization in Matrigel plugs (C57BL/6 mice): dramatic inhibition
- activity of both Akt and PDK1 (Akt and PDK1): reduced
